Data: US8158142B2, “3-deazaadenosine prevents atherosclerosis and graft vasculopathy” (Kerckhoff-Klinik Gesellschaft mit beschrankter Haftung, priority 1998, dated 2012)

What was measured:
VCAM-1 [1] = experiment: Immunohistochemical staining of VCAM-1 in ascending aorta (APAAP method); type: in vivo, mouse; details: for Endothelial expression of VCAM-1 in the aorta (words): mice on atherogenic diet treated with c^3Ado, FIG. 4
Method: (§1) Serial cryostate sections (8 μm) from the following 3 parts of the ascending aorta were chosen: 8-32 μm, 120-144 μm and 240-264 μm distal to the aortic sinus. The frozen sections were fixed in ice-cold acetone and dried for 10 minutes. Sections were then incubated for 10 minutes in a 1:1000 dilution of mouse serum (Sigma, St. Louis, Mo., USA). After rinsing with RPMI 1640 (Life Technologies, Paisley, Scotland), the sections were incubated for 40 minutes at room temperature with a 1:100 dilution of a monoclonal rat anti-mouse antibody against ICAM-1 (CF54) or VCAM-1 (CD106, Dianova GmbH, Hamburg, Germany). Detection of monocytes/macropheges was performed using monoclonal rat anti-mouse antibody CD11 b (MAC-1) (Serotec Ltd., Oxford, England).
(§2) After additional washing steps with TRIS buffer (USB, Cleveland, Ohio, USA) and incubation with a secondary antibody (AffiniPureMouse anti-ret IgG, Dianova, Germany) (1:400) for 10 minutes, followed by incubation with a linking antibody (Dualsystem-Brückenantikörper; Dianova, Hamburg, Germany) (1:600) for 10 minutes, the sections were incubated with an alkaline phosphatase anti-alkaline phosphatese complex (APAPP) (1:50; Dianova, Hamburg, Germany) for 30 minutes. The development of the sections was performed in neufuchsin developer solution. Sections were finally counterstained with hemalaun (Merck, Darmstadt, Germany) for 10 seconds. Control sections were treated with linking secondary antibody and APAAP complex only.
(§3) The intensity of staining with ICAM-1 and VCAM-1 was scored from 1 to 4 as follows: score 1=no staining, score 2=weak staining, score 3=moderate staining and score 4=strong staining of the vascular cells. The number of CD11b-positive cells was counted in each section, and the localization of the cells was classified as adherent to the wall, or localized in the intima or in the media.

[2] = system: Lewis rats which received heterotopically transplanted hearts from Fisher rats; experiment: Heterotopic heart allograft survival and rejection (Fisher to Lewis rats); type: in vivo, rat
Method: (§4) 3-Deazaadenosine was orally administered by mixing into the regular food at a final concentration of 0.04 mg/g, according to a daily oral dose of 10 mg/kg c3Ado per animal, in addition to or in absence of cyclosporine (0.2 mg/kg body weight) to Lewis rats which received heterotopically transplanted hearts from Fisher rats. For a third control group, only cyclosporine was administered daily to the other allograft recipients. All animals got a standard diet over the whole study period. Allografts were harvested on day 120, cardiac graft beat was assessed by daily palpation, and the complete cessation of the graft beat was interpreted as rejection.

Body weight development = type: in vivo, mouse; details: day 65, atherogenic diet + c^3Ado 10 mg/kg/day oral, mean ± SEM, n = 9
Method: (§5) Six to eight week old female C57BL/J6 mice (Charles Rivers Wiga, Sulzfeld, Germany) with an average body weight of 20 g were randomly divided into three groups:
(§6) The average intake of food for each animal was 5.2 g per day. Food and water were replenished every 2 days, and the volumes consumed for each cage were recorded. The mice were kept in accordance with standard animal care requirements and were maintained on a 12 hour light-dark cycle with autoclaved water in a temperature-controlled environment. All animals remained healthy during the experimental period. After 9 weeks, mice were sacrificed by inhalation of trichlormethane. The heart and the ascending aorta were removed and rinsed with PBS DULBECCO'S (Life Technologies, Paisley, Scotland). The lower half of the heart was transected along a line between the tips of the atria to obtain a base for the emerging ascending aorta. This procedure allowed an exact vertical embedding of the aorta in Tissue-Tek (Miles, USA) for optimal plane cross sections. The sections were frozen in liquid nitrogen and stored at −80° C. until further study.

female C57BL/J6 mice = experiment: Quantification of atherosclerotic lesions and neointimal proliferation in the ascending aorta of mice on atherogenic diet; type: in vivo, mouse; details: for NI/M Ratio (neointimal to medial area ratio): mean ± SEM, 3 sections per animal
Excerpt: as §5
Group 1: control animals (n=9) maintained on a normal mouse diet (Altromin, Standard Diet; Lage, Germany).
Group 2: nine animals receiving an atherogenic diet based on normal mouse chow but differing in total fat content (10% vs. 5%), protein content (15.4% vs. 22%) and cholesterol content (1% vs. 0%). The total energy was 3790 vs. 3000 kcal/kg.
Group 3: nine animals on an atherogenic diet as described above, and 3-deazaadenosine (c^3Ado) (Southern Research, Birmingham, Ala., USA) mixed into the food at a final concentration of 0.04 mg/g, according to a daily oral dose of 10 mg/kg c^3Ado per animal.
as §6
A modification of the method described by Paigen at el. (29) was used to evaluate aortic lesion formation. The frozen tissue blocks were placed on a cryotome, and 8 μm serial sections of the ascending aorta were collected on coated glass slides until we were able to locate the most cranial portion of the aortic sinus by examining unstained sections. Once this section (No.1) was identified, the cranial 35 sections, covering 280 μm of the ascending aorta, were placed on separate slides for further evaluation. Every fifth section of the first 280 μm of the ascending aorta was stained with oil red O (Riedel de Haen, Germany) and counterstained with hemalaun (Merck, Darmstadt, Germany) end elastic van Gieson (Chrome-Gesellsohaft, Schmid GmbH, Köngen, Germany). Lesion area as well as intimal and medial area were blindly determined using a video-computer aided microscopy planimetry system (Zeiss, Oberkochen, Germany; Video Camera 3 CCD,
Sony; 40× lens magnification; IBAS-2 with IBAS Version 2.0 Standard, Kontron, München, Germany).
The number of lesions was counted as described previously by reviewing every fifth section. […] The number of lesions in each cross section was also counted. Size of the lesions was determined as length of lesion along the luminal aortic perimeter which was related to the total luminal aortic perimeter in the section.
The extent of neointimal proliferation was quantified by measuring the area (μm^2) of the neointima and the media in each ascending aorta from 3 sections (No.10, 20 and 30). In each section four sectors (at 0°, 90°; 180° and 270°) of the vessel wall were analyzed in a defined window of 63 μm×63 μm to measure neointimal area enclosed by the endothelial layer and internal elastic lamina and external elastic lamina. Ratio of neointimal to medial are ratio (NI/M) was averaged for each animal.

VCAM-1 [3] = experiment: Immunohistochemical analysis of VCAM-1 in transplanted hearts; type: in vivo, rat; details: heart allograft, day 120
Method: as §4, with “rejection. […]” for “rejection.”
(§7) For immunohistochemical analysis of VCAM-1 and ICAM-1. two complete transverse sections of the transplanted heart approximately 3 mm in thickness were obtained and stored in optimum cutting temperature compound. Serial sections were cut and dipped in cold acetone for 10 minutes. The staining procedures were performed as described previously. The expression of the adhesion molecules was scored on the basis of endothelial cells and smooth muscle cells of epicardial arteries and intramyocardial aterioles. Analysis was done semiquantitatively by scoring the intensity of the staining and counting of the number of stained cells.

ICAM-1 [4] = experiment: Immunohistochemical staining of ICAM-1 in ascending aorta (APAAP method); type: in vivo, mouse; details: for Endothelial expression of ICAM-1 in the aorta (words): mice on atherogenic diet treated with c^3Ado, FIG. 4
Method: as §1, §2, §3

monocyte = details: cited from earlier work
CD11b-positive monocytes = experiment: Counting of CD11b-positive monocytes in aortic sections; type: in vivo, mouse
Method: as §1, §2, §3

[5] = target: adenosylhomocysteine hydrolase (Homo sapiens, UniProt P23526); details: cited from earlier work
[6] = Total plasma cholesterol levels (CHOD-PAP method); type: in vivo, mouse; details: atherogenic diet + c^3Ado 10 mg/kg/day oral, mean ± SEM
Method: Blood was collected via the tail vein from all mice after overnight fasting prior to initiation of the experiment, after 35 days feeding the different diets, and at time of death. Total plasma cholesterol levels were determined using the CHOD-PAP method (Boehringer Mannheim, Germany) as described previously (32).

[7] = system: Lewis rats which received heterotopically transplanted hearts from Fisher rats; experiment: Graft vasculopathy / graft atherosclerosis (intimal thickening) in transplanted hearts; type: in vivo, rat; details: after 120 days
Method: as §4, with “rejection. […]” for “rejection.”
Every complete cross-section of the traceable arteries was calculated. The sections were reviewed by two independent reviewers masked to the status of the slides, and histologic changes were assessed semiquantitatively. The changes of intimal thickening were scored as mild (score 1, <25% occlusion of the lumen) when the intima was readily discernible, or as moderate (score 2, 25-50% occlusion) to severe (score 3, >50% occlusion).

ICAM-1 [8] = experiment: Immunohistochemical analysis of ICAM-1 in transplanted hearts; type: in vivo, rat; details: heart allograft, day 120
Method: as §4, with “rejection. […]” for “rejection.”
as §7

endothelial cells = details: in vitro, via selective inhibition of ICAM-1 synthesis; cited from earlier work
[9] = score 1 = no staining to 4 = strong staining, endothelial, ascending aorta, 9 weeks, mean ± SEM
[10] = mean ± SEM out of 3 sections per animal, 9 weeks atherogenic diet + c^3Ado
[11] = group 3, atherogenic diet + c^3Ado

Chain of adenosylhomocysteine hydrolase (P23526 whole entry): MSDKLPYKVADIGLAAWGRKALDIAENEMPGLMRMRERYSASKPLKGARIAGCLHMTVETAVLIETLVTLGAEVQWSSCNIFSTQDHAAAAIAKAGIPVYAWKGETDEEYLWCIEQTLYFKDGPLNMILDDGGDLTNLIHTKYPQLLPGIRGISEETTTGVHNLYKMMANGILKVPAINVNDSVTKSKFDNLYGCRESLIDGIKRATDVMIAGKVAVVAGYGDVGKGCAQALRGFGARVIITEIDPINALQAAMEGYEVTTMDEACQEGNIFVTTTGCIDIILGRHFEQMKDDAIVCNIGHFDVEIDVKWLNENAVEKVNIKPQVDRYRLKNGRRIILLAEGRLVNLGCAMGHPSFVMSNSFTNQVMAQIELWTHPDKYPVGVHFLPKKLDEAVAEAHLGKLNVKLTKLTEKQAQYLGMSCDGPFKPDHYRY

## Nc1nccc2c1ncn2[C@@H]1O[C@H](CO)[C@@H](O)[C@H]1O [c^3Ado, 3-deazaadenosine]
VCAM-1 [1]
  Endothelial expression of VCAM-1 in the aorta (words): completely absent
VCAM-1 [1]; listed as 3-deazaadenosine
  Endothelial expression of VCAM-1 in the aorta (words): no endothelial expression
VCAM-1 [1]; [9]
  VCAM-1 expression score: 1.0 ± 0
[2]; 10 mg/kg/day oral, 120 days
  Complications as a result of therapy: No complications
[2]; daily palpation, observation 120 days
  Graft survival (graft beat): kept beating for the duration of observation
[2]; heart allograft, 120 days
  Graft rejection: completely free from rejection
Body weight development
  Body weight day 65: 25.3 ± 0.2 g
Female C57BL/J6 mice; fatty streak lesions, mean ± SEM from 7 sections per animal
  Number of lesions: 0 ± 0
Female C57BL/J6 mice; light micrographs, 200 μm cranial to aortic valve, FIG. 3
  Neointima in aortic cross sections: absent
Female C57BL/J6 mice; [10]
  Medial Area: 62.7 ± 2.5 × × 10^3 μm^2
  Neointimal area: 0.13 ± 0.03 × × 10^3 μm^2
Female C57BL/J6 mice; 9 weeks atherogenic diet + c^3Ado
  NI/M Ratio (neointimal to medial area ratio): 0.002 ± 0.0004
Female C57BL/J6 mice; 9 weeks atherogenic diet + c^3Ado, listed as c^aAdo
  NI/M Ratio (neointimal to medial area ratio): 0.002±0.0004
Female C57BL/J6 mice; oil red O staining, 7 frozen sections per animal
  Fatty streak lesions in sections of the ascending aorta: no detectable lesions
Female C57BL/J6 mice; proximal ascending aorta, planimetric analysis, atherogenic diet + c^3Ado, p<0.001
  Neointimal area: 125±32 μm^2
Female C57BL/J6 mice; vs atherogenic diet alone, p<0.001
  Neointimal thickness as NI/M, lower than in mice on atherogenic diet without c^3Ado: 94%
VCAM-1 [3]
  VCAM-1 expression in the neointima of transplanted hearts: almost no expression
ICAM-1 [4]
  Endothelial expression of ICAM-1 in the aorta (words): completely absent
ICAM-1 [4]; listed as 3-deazaadenosine
  Endothelial expression of ICAM-1 in the aorta (words): no endothelial expression
ICAM-1 [4]; [9]
  ICAM-1 expression score: 1.0 ± 0
monocyte
  Monocyte chemotaxis and phagocytosis: inhibit
CD11b-positive monocytes; [11]
  Adherent CD11b-positive cells on the luminal surface: only a few adherent CD11b-positive cells
  CD11b-positive monocytic cells within the intima: no monocytic cells within the intima
CD11b-positive monocytes; mean ± SEM per section, 3 defined sections per animal, first of two columns with the same head (title: endothelial monocytes)
  Amount of intimal monocytes (first column of this head): 0.5 ± 0.2
CD11b-positive monocytes; mean ± SEM per section, 3 defined sections per animal, second of two columns with the same head
  Amount of intimal monocytes (second column of this head): 0 ± 0
[5]
  Effect on adenosylhomocysteine hydrolase: suppresses
[6]; day 35, plasma
  Total cholesterol day 35: 410 ± 19 mg/dL
[6]; day 65, plasma
  Total cholesterol day 65: 475 ± 10 mg/dL
[7]
  Intimal thickening of intramyocardial and epicardial arteries: almost no arterial intimal thickening
ICAM-1 [8]
  ICAM-1 expression in the neointima of transplanted hearts: almost no expression
Endothelial cells
  Tumor necrosis factor-a-induced macrophage adhesion to endothelial cells: reduces
